Earlier results in PMC11584006, “Structural characterization and AlphaFold modeling of human T cell receptor recognition of NRAS cancer neoantigens” (Science Advances, 2024).

System: T cells transduced with these TCRs
Conditions: for peptide concentration at which TCR-transduced T cells can be activated: APCs pulsed with peptide, wild-type tested at >1000-fold higher concentrations
Excerpt: KRAS is the most highly mutated RAS isoform across cancers, accounting for ~85% of all RAS mutations with especially high frequencies in pancreatic and colorectal cancers ([12], [13]). However, NRAS mutations dominate in melanomas, with mutations at position 61 appearing in ~20% of patients ([14]). The two most frequent mutations are Q61K and Q61R ([15]). Mutant NRAS melanomas have more aggressive clinical features and poorer outcomes compared to nonmutant NRAS melanomas ([16]–[18]). […] This HLA-A*01:01–restricted TCR recognizes the NRAS^Q61K and NRAS^Q61R neoepitopes using gene segments TRDV1 and TRAJ27-1 for the α chain and TRBV27 and TRBJ2-5 for the β chain. […] Recombinant TCR and pMHC proteins were expressed by in vitro folding from bacterial inclusion bodies. Biotinylated wild-type NRAS–HLA-A1, NRAS ...

Sequence: ILDTAGKEEY [NRAS^Q61K, NRAS^Q61K peptide ([…]), residues 55 to 64]
- peptide concentration at which TCR-transduced T cells can be activated: subnanomolar

Sequence: ILDTAGQEEY [wild-type NRAS peptide, reference compound]
- peptide concentration at which TCR-transduced T cells can be activated: do not respond

Sequence: ILDTAGREEY [NRAS^Q61R, NRAS^Q61R peptide ([…])]
- peptide concentration at which TCR-transduced T cells can be activated: subnanomolar
- concentration of peptide required for recognition (peptide titrations), relative to NRAS^Q61K (peptide titrations, HLA-A*01:01): a higher concentration
